Data: publication PMC10786919, “Design-rules for stapled peptides with in vivo activity and their application to Mdm2/X antagonists” (Nature Communications, 2024)
pEC50: −log10 of the molar value. Like-named read-outs stand apart in the source and are kept apart here. Starred links: 1 amine or outer side, 2 acyl side, 3 side chain; linkers in the order of their positions; H or OH if unused. Positions of bridges follow the written chain, without caps; N, C: chain ends. Non-standard residues stand in square brackets, D forms with d. Residues, ends and D or L forms follow the SMILES beside them. dR8(desαMe) = O=C([C@@H](CCCCCCC=[*:3])N[*:1])[*:2]; Nle(6-ylidene) = O=C([C@H](CCCC=[*:3])N[*:1])[*:2]; tBuAla = CC(C)(C)C[C@H](N)C(=O)O; R8 = C=CCCCCCC[C@@](C)(N)C(=O)O; S5 = C=CCCC[C@](C)(N)C(=O)O; Ahx = NCCCCCC(=O)O

How the values were obtained:
Type in all cases: cell-based
HCT116 cells = experiment: Lactate dehydrogenase (LDH) release assay
Summary of the method: (§1)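 HCT116 cells stably carrying a p53-responsive β-lactamase reporter, seeded at 8000 cells/well, exposed to compound with 0.5% final DMSO. LDH release read with the CytoTox-ONE membrane integrity kit. Values are geometric means of at least three biological replicates.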

[1] = Lactate dehydrogenase (LDH) release assay; conditions: LDH: Cytotoxicity assay EC50
Summary of the method: as §1

[2] = system: p53 responsive β-lactamase reporter in HCT116 cells; experiment: cells; conditions: read-out: p53 reporter assay EC50
Experimental: HCT116 cells were stably transfected with a p53 responsive β-lactamase reporter and expanded in McCoy’s 5 A Medium with 10% fetal bovine serum (FBS), Blasticidin, and Penicillin/Streptomycin and then transferred to 1.5 ml freezing vials and stored under liquid nitrogen in growth media containing 5% DMSO. […] The cells were then seeded into a 384-well plate at a density of 8000 cells per well. […] The final working concentration of DMSO was 0.5%. β-lactamase activity was detected using the ToxBLAzer Dual Screen (Invitrogen), as per the manufacturer’s instructions. Measurements were made using the Envision multiplate reader (Perkin–Elmer). […] Measurements were taken a minimum of three times (biological replicates) and values are reported as geometric means of the replicates.

[3] = system: Jump-In T-REx CHO-K1 BLA cells; experiment: cells; conditions: for pEC50: read-out: TETCHO: Counterscreen EC50
Experimental: This assay was based on Jump-In™ T-REx™ CHO-K1 BLA cells containing a stably integrated β-lactamase under the control of an inducible cytomegalovirus (CMV) promoter. Cells were maintained in Dulbecco’s […] Eagle Medium (DMEM) with 10% fetal bovine serum (FBS), Blasticidin, and Penicillin/Streptomycin and then transferred to 1.5 ml freezing vials and stored under liquid nitrogen in growth media containing 5% DMSO. […] Cells were seeded into a 384-well plate at a density of 4000 cells per well. Peptides were then dispensed to each well using a liquid handler, ECHO 555 and incubated for 16 h. The final working concentration of DMSO was 0.5%. β-lactamase activity was detected using the ToxBLAzer Dual Screen (Invitrogen), as per the manufacturer’s instructions. Measurements were carried out using the Envision multiplate reader (Perkin–Elmer). Counterscreen activity was defined as the amount of β-lactamase activity induced by tetracycline. Measurements were taken a minimum of three times (biological replicates) and values are reported as geometric means of the replicates.

Structure (SMILES)	LDH: Cytotoxicity assay % Effect (HCT116 cells)	pEC50 [1]	pEC50 ([2]; 0% FBS 4Hr)	TETCHO: Counterscreen % Effect ([3]; 0% FBS 4Hr)	pEC50 ([3]; 0% FBS 4Hr)	pEC50 ([2]; 0% FBS 16Hr)	TETCHO: Counterscreen % Effect ([3]; 0% FBS 16Hr)
CC(=O)N[C@@H](CCCCN)C(=O)N[C@@H](CCCCN)C(=O)N[C@H](C(=O)N[C@@H](CO)C(=O)N[C@@H](Cc1ccccc1)C(=O)N[C@]1(C)CCCCCCC=CCCC[C@@](C)(C(N)=O)NC(=O)[C@H](CC(C)(C)C)NC(=O)[C@H](CC(C)C)NC(=O)[C@H](C)NC(=O)[C@H](Cc2c[nH]c3ccccc23)NC(=O)[C@H](Cc2ccc(O)cc2)NC(=O)[C@H](CCC(=O)O)NC1=O)[C@@H](C)O [MP-152] (Ac-KKTSF[R8]EYWAL[tBuAla][S5]-NH2; staple 6-13)	49.97%	4.76	4.71	34.57%	4.44		
CC(=O)N[C@H](C(=O)N[C@@H](CO)C(=O)N[C@@H](Cc1ccccc1)C(=O)N[C@]1(C)CCCCCCC=CCCC[C@@](C)(C(=O)N[C@@H](CCC(=O)O)C(=O)N[C@@H](CC(N)=O)C(=O)N[C@@H](Cc2ccc(O)cc2)C(N)=O)NC(=O)[C@H](CC(C)C)NC(=O)[C@H](CC(C)C)NC(=O)[C@H](C)NC(=O)[C@H](Cc2c[nH]c3ccccc23)NC(=O)[C@H](Cc2ccc(O)cc2)NC(=O)[C@H](CCC(=O)O)NC1=O)[C@@H](C)O [MP-1170]	6.762%	< 4.30	4.78	61.75%	4.43		
CC(=O)N[C@H](C(=O)N[C@@H](CO)C(=O)N[C@@H](Cc1ccccc1)C(=O)N[C@@H]1CCCCCCC=CCCC[C@@H](C(N)=O)NC(=O)[C@H](CC(C)(C)C)NC(=O)[C@H](CC(C)C)NC(=O)[C@H](C)NC(=O)[C@H](Cc2c[nH]c3ccccc23)NC(=O)[C@H](Cc2ccc(O)cc2)NC(=O)[C@H](CCC(=O)O)NC1=O)[C@@H](C)O [MP-150] (Ac-TSF[dR8(desαMe)]EYWAL[tBuAla][Nle(6-ylidene)]-NH2; staple 4-11)	-0.7157%	< 4.30	4.65	-3.542%	< 4.30		
CC(=O)N[C@@H](CCCNC(=N)N)C(=O)N[C@@H](CCCNC(=N)N)C(=O)N[C@@H](CCCNC(=N)N)C(=O)NCCCCCC(=O)N[C@H](C(=O)N[C@@H](CO)C(=O)N[C@@H](Cc1ccccc1)C(=O)N[C@]1(C)CCCCCCC=CCCC[C@@](C)(C(N)=O)NC(=O)[C@H](CC(C)C)NC(=O)[C@H](CC(C)C)NC(=O)[C@H](C)NC(=O)[C@H](Cc2c[nH]c3ccccc23)NC(=O)[C@H](Cc2ccc(O)cc2)NC(=O)[C@H](CCC(=O)O)NC1=O)[C@@H](C)O [MP-1177]	51.96%	4.50	5.07	50.69%	4.75		
CC(=O)N[C@H](C(=O)N[C@@H](CO)C(=O)N[C@@H](Cc1ccccc1)C(=O)N[C@]1(C)CCCC=CCCCCCC[C@@](C)(C(N)=O)NC(=O)[C@H](CC(C)C)NC(=O)[C@H](CC(C)C)NC(=O)[C@H](C)NC(=O)[C@H](Cc2c[nH]c3ccccc23)NC(=O)[C@H](Cc2ccc(O)cc2)NC(=O)[C@H](CCC(=O)O)NC1=O)[C@@H](C)O [MP-035]	37.58%	< 4.30	5.06				
CC(=O)N[C@@H](CCCCN)C(=O)N[C@@H](CC(C)C)C(=O)N[C@@H](C)C(=O)N[C@@H](CCCCN)C(=O)NCCCCCC(=O)N[C@H](C(=O)N[C@@H](CO)C(=O)N[C@@H](Cc1ccccc1)C(=O)N[C@]1(C)CCCCCCC=CCCC[C@@](C)(C(=O)N[C@@H](CCC(=O)O)C(=O)N[C@@H](CC(N)=O)C(=O)N[C@@H](Cc2ccccc2)C(N)=O)NC(=O)[C@H](CC(C)C)NC(=O)[C@H](CC(C)C)NC(=O)[C@H](C)NC(=O)[C@H](Cc2c[nH]c3ccccc23)NC(=O)[C@H](Cc2ccc(O)cc2)NC(=O)[C@H](CCC(=O)O)NC1=O)[C@@H](C)O [MP-2041] (Ac-KLAK[Ahx]TSF[R8]EYWALL[S5]ENF-NH2; staple 9-16)	5.898%	< 4.30	5.22				
CC(=O)N[C@@H](CCCCN)C(=O)N[C@@H](CCCCN)C(=O)NCCCCCC(=O)N[C@H](C(=O)N[C@@H](CO)C(=O)N[C@@H](CC(C)C)C(=O)N[C@]1(C)CCCCCCC=CCCC[C@@](C)(C(=O)N[C@@H](CCC(=O)O)C(=O)N[C@@H](CC(N)=O)C(=O)N[C@@H](Cc2ccccc2)C(N)=O)NC(=O)[C@H](Cc2c[nH]c3ccccc23)NC(=O)[C@H](CC(C)C)NC(=O)[C@H](C)NC(=O)[C@H](Cc2ccccc2)NC(=O)[C@H](Cc2ccc(O)cc2)NC(=O)[C@H](CCC(=O)O)NC1=O)[C@@H](C)O [MP-039] (Ac-KK[Ahx]TSL[R8]EYFALW[S5]ENF-NH2; staple 7-14)	28.85%	< 4.30	< 4.30				
CC(=O)N1CCC[C@H]1C(=O)N[C@@H](CCCNC(=N)N)C(=O)N[C@@H](Cc1ccccc1)C(=O)N[C@]1(C)CCCCCCC=CCCC[C@@](C)(C(N)=O)NC(=O)[C@H](CC(C)C)NC(=O)[C@H](CCCNC(=N)N)NC(=O)[C@H](Cc2ccc(O)cc2)NC(=O)[C@H](Cc2c[nH]c3ccccc23)NC(=O)[C@H](Cc2ccc(O)cc2)NC(=O)[C@H](CCC(=O)O)NC1=O [MP-2032] (Ac-PRF[R8]EYWYRL[S5]-NH2; staple 4-11)	-1.239%	< 4.30	4.59				
CC(=O)N[C@@H](CCCCN)C(=O)NCCCCCC(=O)N[C@H](C(=O)N[C@@H](CO)C(=O)N[C@@H](Cc1ccccc1)C(=O)N[C@]1(C)CCCCCCC=CCCC[C@@](C)(C(=O)N[C@@H](CCC(=O)O)C(=O)N[C@@H](CC(N)=O)C(=O)N[C@@H](Cc2ccccc2)C(N)=O)NC(=O)[C@H](CC(C)C)NC(=O)[C@H](CC(C)C)NC(=O)[C@H](C)NC(=O)[C@H](Cc2c[nH]c3ccccc23)NC(=O)[C@H](Cc2ccc(O)cc2)NC(=O)[C@H](CCC(=O)O)NC1=O)[C@@H](C)O [MP-5365]			5.45	4.41%	< 4.30	5.66	1.46%
CC(=O)N[C@@H](CCCCN)C(=O)N[C@@H](CCCCN)C(=O)NCCCCCC(=O)N[C@H](C(=O)N[C@@H](CO)C(=O)N[C@@H](Cc1ccccc1)C(=O)N[C@]1(C)CCCCCCC=CCCC[C@@](C)(C(=O)N[C@@H](CCC(=O)O)C(=O)N[C@@H](CC(N)=O)C(=O)N[C@@H](Cc2ccccc2)C(N)=O)NC(=O)[C@H](CC(C)C)NC(=O)[C@H](CC(C)C)NC(=O)[C@H](C)NC(=O)[C@H](Cc2c[nH]c3ccccc23)NC(=O)[C@H](Cc2ccc(O)cc2)NC(=O)[C@H](CCC(=O)O)NC1=O)[C@@H](C)O [MP-5363] (Ac-KK[Ahx]TSF[R8]EYWALL[S5]ENF-NH2; staple 7-14)			5.47	48.32%	< 4.30	5.49	4.17%
CC(=O)N[C@H](C(=O)N[C@@H](CO)C(=O)N[C@@H](Cc1ccccc1)C(=O)N[C@]1(C)CCCCCCC=CCCC[C@@](C)(C(N)=O)NC(=O)[C@H](CC(C)C)NC(=O)[C@H](CCCNC(=N)N)NC(=O)[C@H](Cc2ccc(O)cc2)NC(=O)[C@H](Cc2c[nH]c3ccccc23)NC(=O)[C@H](Cc2ccc(O)cc2)NC(=O)[C@H](CCC(=O)O)NC1=O)[C@@H](C)O [MP-033] (Ac-TSF[R8]EYWYRL[S5]-NH2; staple 4-11)	1.548%	< 4.30	4.87				
